Test results from PubChem BioAssay (NCI).
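GI50 marks 50% less growth. The concentration for full growth arrest is given as TGI.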

Legend:
Assay in all cases: inhibition of tumour cell growth, NCI panel, 384-well format
786-0 renal = tested on: 786-0 renal
A498 renal = tested on: A498 renal
A549 NSCLC = tested on: A549 NSCLC
ACHN renal = tested on: ACHN renal
BT-549 breast = tested on: BT-549 breast
CAKI-1 renal = tested on: CAKI-1 renal
CCRF-CEM leukemia = tested on: CCRF-CEM leukemia
COLO 205 colon = tested on: COLO 205 colon
DU-145 prostate = tested on: DU-145 prostate
EKVX NSCLC = tested on: EKVX NSCLC
HCC-2998 colon = tested on: HCC-2998 colon
HCT-116 colon = tested on: HCT-116 colon
HCT-15 colon = tested on: HCT-15 colon
HL-60(TB) leukemia = tested on: HL-60(TB) leukemia
HOP-62 NSCLC = tested on: HOP-62 NSCLC
HOP-92 NSCLC = tested on: HOP-92 NSCLC
HS 578T breast = tested on: HS 578T breast
HT29 colon = tested on: HT29 colon
IGROV1 ovarian = tested on: IGROV1 ovarian
K-562 leukemia = tested on: K-562 leukemia
KM12 colon = tested on: KM12 colon
LOX IMVI melanoma = tested on: LOX IMVI melanoma
M14 melanoma = tested on: M14 melanoma
MALME-3M melanoma = tested on: MALME-3M melanoma
MCF7 breast = tested on: MCF7 breast
MDA-MB-231 breast = tested on: MDA-MB-231 breast
MDA-MB-435 melanoma = tested on: MDA-MB-435 melanoma
MDA-MB-468 breast = tested on: MDA-MB-468 breast
MOLT-4 leukemia = tested on: MOLT-4 leukemia
NCI-H226 lung = tested on: NCI-H226 lung
NCI-H23 lung = tested on: NCI-H23 lung
NCI-H322M lung = tested on: NCI-H322M lung
NCI-H460 NSCLC = tested on: NCI-H460 NSCLC
NCI-H522 lung = tested on: NCI-H522 lung
NCI/ADR-RES ovarian = tested on: NCI/ADR-RES ovarian
OVCAR-3 ovarian = tested on: OVCAR-3 ovarian
OVCAR-4 ovarian = tested on: OVCAR-4 ovarian
OVCAR-8 ovarian = tested on: OVCAR-8 ovarian
PC-3 prostate = tested on: PC-3 prostate
RPMI-8226 leukemia = tested on: RPMI-8226 leukemia
RXF 393 renal = tested on: RXF 393 renal
SF-268 CNS = tested on: SF-268 CNS
SF-295 CNS = tested on: SF-295 CNS
SF-539 CNS = tested on: SF-539 CNS
SK-MEL-28 melanoma = tested on: SK-MEL-28 melanoma
SK-MEL-5 melanoma = tested on: SK-MEL-5 melanoma
SK-OV-3 ovarian = tested on: SK-OV-3 ovarian
SN12C renal = tested on: SN12C renal
SNB-19 CNS = tested on: SNB-19 CNS
SNB-75 CNS = tested on: SNB-75 CNS
SR leukemia = tested on: SR leukemia
SW-620 colon = tested on: SW-620 colon
T-47D breast = tested on: T-47D breast
TK-10 renal = tested on: TK-10 renal
U251 glioblastoma = tested on: U251 glioblastoma
UACC-257 melanoma = tested on: UACC-257 melanoma
UACC-62 melanoma = tested on: UACC-62 melanoma
UO-31 renal = tested on: UO-31 renal

COCC(=O)NC/C=C/c1ccc2ncnc(Nc3ccc(Oc4ccc(C)nc4)c(C)c3)c2c1
GI50 ([…]-0 renal): 16 µM | TGI (786-0 renal): 29.6 µM | GI50 (A498 renal): 14.3 µM | TGI (A498 renal): 27.6 µM | GI50 (A549 NSCLC): 11.5 µM | TGI (A549 NSCLC): 23.9 µM | GI50 (ACHN renal): 12.1 µM | TGI (ACHN renal): 29.1 µM | GI50 (BT-549 breast): 13.7 µM | TGI (BT-549 breast): 26.8 µM | GI50 (CAKI-1 renal): 10.9 µM | TGI (CAKI-1 renal): 23.6 µM | GI50 (CCRF-CEM leukemia): 2.86 µM | TGI (CCRF-CEM leukemia): 7.8 µM | GI50 (COLO 205 colon): 12.3 µM | TGI (COLO 205 colon): 24.8 µM | GI50 (DU-145 prostate): 12.9 µM | TGI (DU-145 prostate): 29.3 µM | GI50 (EKVX NSCLC): 9.72 µM | TGI (EKVX NSCLC): 22.6 µM | GI50 (HCC-2998 colon): 17.5 µM | TGI (HCC-2998 colon): 31.4 µM | GI50 (HCT-116 colon): 14.2 µM | TGI (HCT-116 colon): 27.5 µM | GI50 (HCT-15 colon): 13 µM | TGI (HCT-15 colon): 26.4 µM | GI50 (HL-60(TB) leukemia): 3.53 µM | TGI (HL-60(TB) leukemia): 10.3 µM | GI50 (HOP-62 NSCLC): 15.4 µM | TGI (HOP-62 NSCLC): 29.6 µM | GI50 (HOP-92 NSCLC): 13.4 µM | TGI (HOP-92 NSCLC): 26.4 µM | GI50 (HS 578T breast): 11.9 µM | TGI (HS 578T breast): 24.2 µM | GI50 (HT29 colon): 15.1 µM | TGI (HT29 colon): 28.5 µM | GI50 (IGROV1 ovarian): 11.7 µM | TGI (IGROV1 ovarian): 24.5 µM | GI50 (K-562 leukemia): 5.45 µM | TGI (K-562 leukemia): 18.2 µM | GI50 (KM12 colon): 15.8 µM | TGI (KM12 colon): 29.8 µM | GI50 (LOX IMVI melanoma): 12 µM | TGI (LOX IMVI melanoma): 24.6 µM | GI50 (M14 melanoma): 17.1 µM | TGI (M14 melanoma): 30.9 µM | GI50 (MALME-3M melanoma): 14.3 µM | TGI (MALME-3M melanoma): 27.4 µM | GI50 (MCF7 breast): 4.11 µM | TGI (MCF7 breast): 14.7 µM | GI50 (MDA-MB-231 breast): 10.7 µM | TGI (MDA-MB-231 breast): 23.3 µM | GI50 (MDA-MB-435 melanoma): 15.6 µM | TGI (MDA-MB-435 melanoma): 29.1 µM | GI50 (MDA-MB-468 breast): 2.19 µM | TGI (MDA-MB-468 breast): 6.66 µM | GI50 (MOLT-4 leukemia): 6.77 µM | TGI (MOLT-4 leukemia): 18.8 µM | GI50 (NCI-H226 lung): 16.4 µM | TGI (NCI-H226 lung): 31.9 µM | GI50 (NCI-H23 lung): 15.1 µM | TGI (NCI-H23 lung): 28.8 µM | GI50 (NCI-H322M lung): 10.7 µM | TGI (NCI-H322M lung): 25.8 µM | GI50 (NCI-H460 NSCLC): 4.25 µM | TGI (NCI-H460 NSCLC): 13.2 µM | GI50 (NCI-H522 lung): 1.29 µM | TGI (NCI-H522 lung): 17.3 µM | GI50 (NCI/ADR-RES ovarian): 15 µM | TGI (NCI/ADR-RES ovarian): 29.6 µM | GI50 (OVCAR-3 ovarian): 14.3 µM | TGI (OVCAR-3 ovarian): 27.8 µM | GI50 (OVCAR-4 ovarian): 13.3 µM | TGI (OVCAR-4 ovarian): 26.3 µM | GI50 (OVCAR-8 ovarian): 3.59 µM | TGI (OVCAR-8 ovarian): 13.1 µM | GI50 (PC-3 prostate): 13.9 µM | TGI (PC-3 prostate): 28.3 µM | GI50 (RPMI-8226 leukemia): 4.48 µM | TGI (RPMI-8226 leukemia): 15.3 µM | GI50 (RXF 393 renal): 10.7 µM | TGI (RXF 393 renal): 22.7 µM | GI50 (SF-268 CNS): 16.7 µM | TGI (SF-268 CNS): 31 µM | GI50 (SF-295 CNS): 14 µM | TGI (SF-295 CNS): 27.3 µM | GI50 (SF-539 CNS): 2.66 µM | TGI (SF-539 CNS): 6.57 µM | GI50 (SK-MEL-28 melanoma): 17.1 µM | TGI (SK-MEL-28 melanoma): 31.1 µM | GI50 (SK-MEL-5 melanoma): 3.38 µM | TGI (SK-MEL-5 melanoma): 13.6 µM | GI50 (SK-OV-3 ovarian): 11.3 µM | TGI (SK-OV-3 ovarian): 23.5 µM | GI50 (SN12C renal): 11.6 µM | TGI (SN12C renal): 26.5 µM | GI50 (SNB-19 CNS): 15.2 µM | TGI (SNB-19 CNS): 28.9 µM | GI50 (SNB-75 CNS): 15.9 µM | TGI (SNB-75 CNS): 29.6 µM | GI50 (SR leukemia): 4.1 µM | TGI (SR leukemia): 8.2 µM | GI50 (SW-620 colon): 11.1 µM | TGI (SW-620 colon): 23.2 µM | GI50 (T-47D breast): 4.62 µM | TGI (T-47D breast): 17.6 µM | GI50 (TK-10 renal): 12 µM | TGI (TK-10 renal): 24.7 µM | GI50 (U251 glioblastoma): 15 µM | TGI (U251 glioblastoma): 28.4 µM | GI50 (UACC-257 melanoma): 14.9 µM | TGI (UACC-257 melanoma): 28.3 µM | GI50 (UACC-62 melanoma): 14.9 µM | TGI (UACC-62 melanoma): 28.2 µM | GI50 (UO-31 renal): 12.6 µM | TGI (UO-31 renal): 25.6 µM
